In one assay the test system is aged monkey. As to conditions: aged monkeys; cited from earlier work.
A further assay deals with SDAT patients. The note with it: cited from earlier work.
Assay [1] addresses muscarinic cholinergic receptor. The assay can be described thus: [3H]-Cis-methyldioxolane (3H-CD) Binding Assay (High Affinity). As to conditions: rat cerebral cortex, 1.0 nM 3H-CD, 25° C., 120 minutes, pH 7.4.
The target is the same in assay [2]. Description: [3H] Quinuclidinyl Benzilate (3H-QNB) Binding Assay. More on the design: species or system rat. As to conditions: pH 7.4.

SMILES strings stand for the structures.

The term IC50 denotes the point on the concentration scale where inhibition reaches its midpoint.

Consider `COC(=O)C1=CCCN(C)C1` [arecoline], for which the improvement in performance result in the assay with aged monkey was “significant improvement in performance”. For the same compound, the “improvement compared to physostigmine” value with SDAT patients is “more-consistent improvement when compared to the anticholinesterase inhibitor physostigmine”.
`CN(C)CC#CCN1C[C@H](O)CC1=O` [(R)-1-[4-(Dimethylamino)-2-butynyl]-4-hydroxy-2-pyrrolidinone]: the half-inhibitory concentration (IC50) was 0.578 µM in assay [1] and 2350 µM in assay [2].
As to `O=C1[C@H](O)CCN1CC#CCN1CCCCC1` [(R)-3-Hydroxy-1-[4-(1-piperidinyl)-2-butynyl]-2-pyrrolidinone], the IC50 in assay [1] is 3.46 µM; in assay [2] it was 84 µM.
On to `CN(C)CC#CCN1CC[C@H](O[Si](C)(C)C(C)(C)C)C1=O` [(S)-1-[4-(Dimethylamino)-2-butynyl]-3-[[(1,1-dimethylethyl)dimethylsilyl]oxy]-2-pyrrolidinone], for which the IC50 worked out at 19.5 µM in assay [1] and 200 µM in assay [2].
For the compound `CC(=O)O[C@H]1CC(=O)N(CC#CCN2CCCC2)C1` [(S)-4-(Acetyloxy)-1-[4-(1-pyrrolidinyl)-2-butynyl]-2-pyrrolidinone], the IC50 in assay [1] worked out at 6.11 µM; in assay [2] it was 112 µM.
For `CC(=O)S[C@@H]1CCN(CC#CCN2CCCCC2)C1=O` [(R)-S-[2-Oxo-1-[4-(1-piperidinyl)-2-butynyl]-3-pyrrolidinyl]] [(R)-S-[2-Oxo-1-[4-(1-piperidinyl)-2-butynyl]-3-pyrrolidinyl]ethanethioic acid ester], the 50% inhibitory concentration (IC50) turned out to be 0.03 µM in assay [1] and 4.3 µM in assay [2].
On to `O=C(O[C@@H]1CCN(CC#CCN2CCCCC2)C1=O)c1ccc([N+](=O)[O-])cc1` [(R)-3-[(4-Nitrobenzoyl)oxy]-1-[4-(1-piperidinyl)-2-butynyl]-2-pyrrolidinone], for which the 50% inhibitory concentration (IC50) in assay [1] worked out at 0.937 µM; in assay [2] (rat cerebral cortex, 0.25 nM 3H-QNB, 25° C., 120 minutes), 43 µM.
Take `O=C1C[C@@H](O)CN1CC#CCN1CCCCC1` [(R)-4-Hydroxy-1-[4-(1-piperidinyl)-2-butynyl]-2-pyrrolidinone]: the 50% inhibitory concentration (IC50) came to 3.79 µM in assay [1] and 166 µM in assay [2].
As to `O=C1CCCN1CC#CCN1CCCC1` [oxotremorine], the improvement in performance result in the assay on aged monkey is reported as “significant improvement in performance”.
As to `COC1CCN(CC#CCN(C)C(C)=O)C1` (racemic) [(Racemic)-N-[4-(3-Methoxy-1-pyrrolidinyl)-2-butynyl]-N-methyl acetamide], the concentration for half-maximal inhibition (IC50) in assay [1] amounted to 1.37 µM; in assay [2], 377 µM.
The corresponding values for `CC(=O)O[C@@H]1CC(=O)N(CC#CCN2CCCC2)C1` [(R)-4-(Acetyloxy)-1-[4-(1-pyrrolidinyl)-2-butynyl]-2-pyrrolidinone] are 0.914 µM and 46 µM.
The corresponding values for `CN(C)CC#CCN1CCCC1=O` [1-[4-(Dimethylamino)-2-butynyl]-2-pyrrolidinone, reference compound] are 0.044 µM and 163 µM.
The corresponding values for `CC(=O)OC1CCN(CC#CCN(C)C(C)=O)C1` (racemic) [(Racemic)-N-[4-(3-(Acetyloxy)-1-pyrrolidinyl]-2-butynyl]-N-methyl acetamide, (Racemic)-N-[4-[3-(Acetyloxy)-1-pyrrolidinyl]-2-butynyl]-N-methyl acetamide] are 5.46 µM and 1930 µM.
As for `CC(=O)OC1CCN(CC#CCN2CCCC2=O)C1` (racemic) [(Racemic)-1-[4-[3-(Acetyloxy)-1-pyrrolidinyl]-2-butynyl]-2-pyrrolidinone], the concentration for half-maximal inhibition (IC50) in assay [1] was determined as 1.33 µM; in assay [2] it was 313 µM.
The corresponding values for `COC1CCN(CC#CCN2CCCC2=O)C1` (racemic) [(Racemic)-1-[4-(3-Methoxy-1-pyrrolidinyl)-2-butytnyl]-2-pyrrolidinone, (Racemic)-1-[4-(3-Methoxy-1-pyrrolidinyl)-2-butynyl]-2-pyrrolidinone] are 1.75 µM and 110 µM.

The values are drawn from patent publication US4937235A, “3- or 4-substituted oxotremorine derivatives” (American Cyanamid Company, priority 1989, dated 1990).
